Measurements published in patent US20050245511A1, “Novel compounds that inhibit tryptase activity” (Morphochem AG, priority 1999, published 2005).
Where a name gives a salt, the structure may show the parent alone.

Assays:
[1] = target: human recombinant tryptase (Homo sapiens, UniProt Q15661); experiment: inhibition of the amidolytic activity of tryptase, chromogenic peptide substrate; format: biochemical; conditions: 2.8 nM human recombinant tryptase, Hepes buffer pH 7.8, 200 nM heparin, substrate tosyl-glycyl-prolyl-lysine-4-nitranilide acetate, room temperature
Chain of human recombinant tryptase (Q15661 31-275): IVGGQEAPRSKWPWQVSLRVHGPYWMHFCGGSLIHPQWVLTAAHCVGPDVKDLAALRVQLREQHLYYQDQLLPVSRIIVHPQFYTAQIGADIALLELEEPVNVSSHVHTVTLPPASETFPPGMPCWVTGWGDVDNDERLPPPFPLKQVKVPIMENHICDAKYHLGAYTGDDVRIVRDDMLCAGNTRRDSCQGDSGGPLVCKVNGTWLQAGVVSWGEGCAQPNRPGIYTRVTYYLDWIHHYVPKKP
Method: (§1) To show the inhibition of the catalytic activity of tryptase one may use chromogenic peptide substrates. The inhibition of the amidolytic activity of tryptase by the compounds described above was shown as follows. The measurements were carried out at room temperature in microtiter plates. The compounds were dissolved in dimethylsulfoxide and 5 μl of this solution were added to a 2.8 nM solution of human recombinant tryptase in a Hepes buffer (pH: 7.8 In analogy to example 1 and using 100 mM Hepes, 140 mM NaCl, 0.1% PEG 6000, 0.05% Tween 80 and 200 nM heparin). Finally 750 μM of tosyl-glycyl-prolyl-lysine-4-nitranilide acetate in Hepes buffer were added and the hydrolysis of the substrate was followed with a spektrophometer. The same method but using N-methoxycarbonyl-D-norleucyl-glycyl-L-arginine-4-nitroanilide acetate as substrate was used to determine the inhibition of the proteolytic activity of factor Xa, i.e., another serin protease, by the compounds.

factor Xa = factor Xa (Homo sapiens, UniProt P00742); experiment: inhibition of the proteolytic activity of factor Xa, chromogenic peptide substrate; format: biochemical; conditions: same method, substrate N-methoxycarbonyl-D-norleucyl-glycyl-L-arginine-4-nitroanilide acetate
Chain of factor Xa (P00742 235-488 limits assumed): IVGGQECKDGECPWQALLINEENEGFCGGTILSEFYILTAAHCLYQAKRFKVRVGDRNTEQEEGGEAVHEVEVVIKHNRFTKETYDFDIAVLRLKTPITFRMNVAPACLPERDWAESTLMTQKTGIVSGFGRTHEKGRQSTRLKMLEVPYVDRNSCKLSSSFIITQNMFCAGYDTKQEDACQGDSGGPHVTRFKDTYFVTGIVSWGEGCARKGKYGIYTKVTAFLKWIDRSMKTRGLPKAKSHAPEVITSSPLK
Chain of factor Xa (P00742 41-179 partner limits assumed): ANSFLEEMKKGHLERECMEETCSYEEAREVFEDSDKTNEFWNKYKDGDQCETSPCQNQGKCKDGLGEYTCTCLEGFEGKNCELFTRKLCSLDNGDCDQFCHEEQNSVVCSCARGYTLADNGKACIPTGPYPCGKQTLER
Method: as §1

## N=C(N)c1cccc(NCC(=O)NCC(=O)NCCc2c[nH]c3ccccc23)c1 [Example 2, 2-({3-[amino(imino)methyl]phenyl}amino)-N-(2-{[2-(1H-indol-3-yl)ethyl]amino}-2-oxoethyl)acetamide hydrochloride]
[1]
  IC50: < 0.09 µM
Factor Xa
  IC50: 6.7 µM

## CC(Nc1cccc(C(=N)N)c1)C(=O)NCC(=O)NCCc1c[nH]c2ccccc12 (stereo not drawn) [Example 3, 2-({3-[amino(imino)methyl]phenyl}amino)-N-(2-{[2-(1H-indol-3-yl)ethyl]amino}-2-oxoethyl)propanamide hydrochloride]
[1]
  IC50: < 0.09 µM
Factor Xa
  IC50: 21.9 µM

## N=C(N)c1cccc(NC(C(=O)NCC(=O)NCCc2c[nH]c3ccccc23)c2cc[nH]n2)c1 (stereo not drawn) [Example 4, 2-({3-[amino(imino)methyl]phenyl}amino)-N-(2-{[2-(1H-indol-3-yl)ethyl]amino}-2-oxoethyl)-2-(1H-pyrazol-3-yl)acetamide hydrochloride]
[1]
  IC50: < 0.09 µM
Factor Xa
  IC50: 26.4 µM

## CCOC(=O)C(Nc1cccc(C(=N)N)c1)C(=O)NC(C(=O)NCCc1c[nH]c2ccccc12)C(C)C (stereo not drawn) [Example 5, ethyl 2-({3-[amino(imino)methyl]phenyl}amino)-3-{[1-({[2-(1H-indol-3-yl)ethyl]amino}carbonyl)-2-methylpropyl]amino}-3-oxopropanoate hydrochloride]
[1]
  IC50: < 0.09 µM
Factor Xa
  IC50: 5.7 µM

## COc1ccc(CNC(=O)C(C)NC(=O)CNCc2ccc(C(=N)N)cc2)cc1OC (stereo not drawn) [Example 6, 2-({[({4-[amino(imino)methyl]phenyl}methyl)amino]acetyl}amino)-N-{[3,4-bis(methyloxy)phenyl]methyl}propanamide hydrochloride]
[1]
  IC50: < 0.09 µM
Factor Xa
  IC50: > 110 µM

## COC(=O)c1ccc(C(NCc2ccc(C(=N)N)cc2)C(=O)NC(C(=O)NCCc2c[nH]c3ccccc23)C(C)C)cc1 (stereo not drawn) [Example 7, methyl 4-(1-[({4-[amino(imino)methyl]phenyl}methyl)amino]-2-{[1-({[2-(1H-indol-3-yl)ethyl]amino}carbonyl)-2-methylpropyl]amino}-2-oxoethyl)benzoate hydrochloride]
[1]
  IC50: < 0.09 µM
Factor Xa
  IC50: > 110 µM

## N=C(N)c1cccc(NC(CO)C(=O)NCC(=O)NCCc2c[nH]c3ccccc23)c1 (stereo not drawn) [Example 8, 2-({3-[amino(imino)methyl]phenyl}amino)-3-hydroxy-N-(2-{[2-(1H-indol-3-yl)ethyl]amino}-2-oxoethyl)propanamide hydrochloride]
[1]
  IC50: < 0.09 µM
Factor Xa
  IC50: 7.8 µM

## N=C(N)c1cccc(NCC(=O)NCC(=O)NCCc2ccc(O)cc2)c1 [Example 9, 2-({3-[amino(imino)methyl]phenyl}amino)-N-(2-{[2-(4-hydroxyphenyl)ethyl]amino}-2-oxoethyl)acetamide hydrochloride]
[1]
  IC50: < 0.09 µM
Factor Xa
  IC50: 2.4 µM

## CC(C)C(Nc1cccc(C(=N)N)c1)C(=O)NCC(=O)NCCc1c[nH]c2ccccc12 (stereo not drawn) [Example 10, 2-({3-[amino(imino)methyl]phenyl}amino)-N-(2-{[2-(1H-indol-3-yl)ethyl]amino}-2-oxoethyl)-3-methylbutanamide hydrochloride]
[1]
  IC50: < 0.09 µM
Factor Xa
  IC50: 55 µM

## CC(NC(=O)CNc1cccc(C(=N)N)c1)C(=O)NC1CCCCC1 (stereo not drawn) [Example 11, 2-{[({3-[amino(imino)methyl]phenyl}amino)acetyl]amino}-N-cyclohexylpropanamide hydrochloride]
[1]
  IC50: < 0.09 µM
Factor Xa
  IC50: 4.45 µM

## CC(C)C(NC(=O)CNc1cccc(C(=N)N)c1)C(=O)NCCc1c[nH]c2ccccc12 (stereo not drawn) [Example 12, 2-{[({3-[amino(imino)methyl]phenyl}amino)acetyl]amino}-N-[2-(1H-indol-3-yl)ethyl]-3-methylbutanamide hydrochloride]
[1]
  IC50: < 0.09 µM
Factor Xa
  IC50: 14.5 µM

## CC(NCc1ccc(C(=N)N)cc1)C(=O)NCC(=O)NCCc1ccccn1 (stereo not drawn) [Example 13, 2-[({4-[amino (imino)methyl]phenyl}methyl)amino]-N-(2-oxo-2-{[2-(2-pyridinyl)ethyl]amino}ethyl)propanamide hydrochloride]
[1]
  IC50: < 0.09 µM
Factor Xa
  IC50: > 110 µM

## N=C(N)c1cccc(NCC(=O)NCC(=O)NCc2ccccc2)c1 [Example 14, 2-({3-[amino (imino)methyl]phenyl}amino)-N-{2-oxo-2-[(phenylmethyl)amino]ethyl}acetamide hydrochloride]
[1]
  IC50: < 0.09 µM
Factor Xa
  IC50: 7.15 µM

## N=C(N)c1cccc(NC(CO)C(=O)NCC(=O)N2CCc3ccccc3C2)c1 (stereo not drawn) [Example 15, 2-({3-[amino (imino)methyl]phenyl}amino)-N-[2-(3,4-dihydro-2 (1H)-isoquinolinyl)-2-oxoethyl]-3-hydroxypropanamide hydrochloride]
[1]
  IC50: < 0.09 µM
Factor Xa
  IC50: 3.95 µM

## COc1ccc(CNC(=O)CNC(=O)CNc2cccc(C(=N)N)c2)cc1OC [Example 16, 2-({3-[amino (imino)methyl]phenyl}amino)-N-[2-({[3,4-bis(methyloxy)phenyl]methyl]amino}-2-oxoethyl)acetamide hydrochloride]
[1]
  IC50: < 0.09 µM
Factor Xa
  IC50: 9.2 µM

## CC(C)C(NC(=O)C(CO)Nc1cccc(C(=N)N)c1)C(=O)NCc1ccccc1 (stereo not drawn) [Example 17, 2-{[2-({3-[amino(imino)methyl]phenyl}amino)-3-hydroxypropanoyl]amino}-3-methyl-N-(phenylmethyl)butanamide hydrochloride]
[1]
  IC50: < 0.09 µM
Factor Xa
  IC50: 7.6 µM

## CC(C)C(NC(=O)C(CO)Nc1cccc(C(=N)N)c1)C(=O)NCc1ccc2c(c1)OCO2 (stereo not drawn) [Example 18, 2-{[2-({3-[amino(imino)methyl]phenyl}amino)-3-hydroxypropanoyl]amino}-N-(1,3-benzodioxol-5-ylmethyl)-3-methylbutanamide hydrochloride]
[1]
  IC50: < 0.09 µM
Factor Xa
  IC50: 8.6 µM

## CC(C)C(NC(=O)C(CO)Nc1cccc(C(=N)N)c1)C(=O)NCCC(c1ccccc1)c1ccccc1 (stereo not drawn) [Example 19, 2-{[2-({3-[amino(imino)methyl]phenyl}amino)-3-hydroxypropanoyl]amino}-N-(3,3-diphenylpropyl)-3-methylbutanamide hydrochloride]
[1]
  IC50: < 0.09 µM
Factor Xa
  IC50: 8.6 µM

## N=C(N)c1ccc(CNC(CO)C(=O)NCC(=O)NCCc2ccccn2)cc1 (stereo not drawn) [Example 20, 2-[({4-[amino(imino)methyl]phenyl}methyl)amino]-3-hydroxy-N-(2-oxo-2-{[2-(2-pyridinyl)ethyl]amino}ethyl)propanamide hydrochloride]
[1]
  IC50: < 0.09 µM
Factor Xa
  IC50: > 110 µM

## N=C(N)c1ccc(CNC(C(=O)NCC(=O)NCCc2ccccn2)c2ccc[nH]2)cc1 (stereo not drawn) [Example 21, 2-[({4-(amino(imino)methyl)phenyl}methyl)amino]-N-(2-oxo-2-{[2-(2-pyridinyl)ethyl]amino}ethyl)-2-(1H-pyrrol-2-yl)acetamide hydrochloride]
[1]
  IC50: < 0.09 µM
Factor Xa
  IC50: 7.7 µM

## N=C(N)c1ccc(CNC(C(=O)NCC(=O)NCc2cccnc2)c2ccc[nH]2)cc1 (stereo not drawn) [Example 22, 2-[({4-[amino(imino)methyl]phenyl}methyl)amino]-N-{2-oxo-2-[(3-pyridinylmethyl)amino]ethyl)-2-(1H-pyrrol-2-yl)acetamide hydrochloride]
[1]
  IC50: < 0.09 µM
Factor Xa
  IC50: 15 µM

## N=C(N)c1ccc(CNCC(=O)NCC(=O)N2CCN(Cc3ccc4c(c3)OCO4)CC2)cc1 [Example 23, 2-[({4-(amino(imino)methyl)phenyl)methyl)amino]-N-(2-[4-(1,3-benzodioxol-5-ylmethyl)-1-piperazinyl]-2-oxoethyl}acetamide hydrochloride]
[1]
  IC50: < 0.09 µM
Factor Xa
  IC50: > 110 µM

## COc1ccccc1N1CCN(C(=O)CNC(=O)CNc2cccc(C(=N)N)c2)CC1 [Example 24, 2-({3-[amino(imino)methyl]phenyl}amino)-N-(2-{4-[2-(methyloxy)phenyl]-1-piperazinyl}-2-oxoethyl)acetamide hydrochloride]
[1]
  IC50: < 0.09 µM
Factor Xa
  IC50: 1.6 µM

## N=C(N)c1cccc(NCC(=O)NCC(=O)NCCN2CCOCC2)c1 [Example 25, 2-({3-[amino(imino)methyl]phenyl}amino)-N-(2-([2-(4-morpholinyl)ethyl]amino}-2-oxoethyl)acetamide hydrochloride]
[1]
  IC50: < 0.09 µM
Factor Xa
  IC50: 22.8 µM
